Experiment [1] is described as follows: Inhibition of Sodium/potassium-transporting ATPase in guinea pig heart peincubated for 5 mins followed by addition of ATP and measured after 15 mins. The class given is tissue-based, Cavia porcellus.
Experiment [2] in a line: Inhibition of SERCA (unknown origin). The arrangement: species or system Homo sapiens.
Experiment [3] can be described thus: Inhibition of Sodium/potassium-transporting ATPase in guinea pig brain peincubated for 5 mins followed by addition of ATP and measured after 15 mins. In kind it is tissue-based, Cavia porcellus.
The nature of experiment [4]: Inhibition of Sodium/potassium-transporting ATPase in dog kidney peincubated for 5 mins followed by addition of ATP and measured after 15 mins. The class given is tissue-based, Canis lupus familiaris.
The nature of experiment [5]: Inhibition of Sodium/potassium-transporting ATPase in porcine brain peincubated for 5 mins followed by addition of ATP and measured after 15 mins. The class given is tissue-based, Sus scrofa domesticus.
Experiment [6] concerns the target Potassium-transporting ATPase (Sus scrofa, UniProt P19156). The experiment in a line: Inhibition of pig gastric mucosa Potassium-transporting ATPase by malachite green based colorimetric method. The class given is protein-complex assay, Sus scrofa domesticus.
For experiment [7], the species on record is Oryctolagus cuniculus. Put plainly: Inhibition of rabbit kidney Sodium/potassium-transporting ATPase by malachite green based colorimetric method.
Experiment [8] is filed under the species Oryctolagus cuniculus. The experiment in a line: Inhibition of rabbit kidney Sodium/potassium-transporting ATPase by PK/LDH method.
Experiment [9] deals with T1, Sarcoplasmic/endoplasmic reticulum calcium ATPase 1 (Oryctolagus cuniculus, UniProt P04191). Put plainly: Inhibition of rabbit SERCA1a incubated for 10 mins by enzyme-coupled method.
Experiment [10] addresses Sarcoplasmic/endoplasmic reticulum calcium ATPase 2 (Mus musculus, UniProt O55143). Put plainly: Inhibition of SERCA2b in mouse testicular microsomes. More on the design: species or system Testis.
Experiment [11] concerns the target T1, Sarcoplasmic/endoplasmic reticulum calcium ATPase 1. The experiment in a line: Inhibition of rabbit SERCA1a.
In experiment [12] the target is Sarcoplasmic/endoplasmic reticulum calcium ATPase 3 (Mus musculus, UniProt Q64518). The experiment in a line: Inhibition of SERCA3 in mouse testicular microsomes. More on the design: species or system Testis.
Experiment [13] in a line: Inhibition of fish liver microsomes SERCA by enzyme-coupled method. More on the design: species or system Squalius cephalus.
Experiment [14] concerns the target T1, Sarcoplasmic/endoplasmic reticulum calcium ATPase 1. The experiment in a line: Inhibition of SERCA1a in rabbit microsomes.
Experiment [15] can be described thus: Inhibition of porcine cerebellar microsomes FITC-labelled SERCA2b incubated for 1 hr by fluorescence spectrophotometric method.
Experiment [16] addresses T1, Sarcoplasmic/endoplasmic reticulum calcium ATPase 1. The experiment in a line: Inhibition of rabbit skeletal muscle microsomes FITC-labelled SERCA1a incubated for 1 hr by fluorescence spectrophotometric method.
The nature of experiment [17]: Inhibition of SERCA2a in porcine cardiac microsomes. More on the design: species or system Sus scrofa domesticus, Heart.
In experiment [18] the target is T1, Sarcoplasmic/endoplasmic reticulum calcium ATPase 1. The experiment in a line: Inhibition of rabbit skeletal muscle microsomes SERCA1a.
For experiment [19] the target is unchanged. The experiment in a line: Inhibition of rabbit microsomes SERCA1a by enzyme-coupled method.
For experiment [20] the target is unchanged. The experiment in a line: Inhibition of rabbit skeletal muscle microsomes SERCA1a by enzyme-coupled method.
Experiment [21] deals with Sarcoplasmic/endoplasmic reticulum calcium ATPase 2 (Rattus norvegicus, UniProt P11507). Put plainly: Inhibition of rat cerebellar microsomes SERCA2b by enzyme-coupled method. More on the design: species or system Cerebellum.
In experiment [22] the target is T1, Sarcoplasmic/endoplasmic reticulum calcium ATPase 1. The experiment in a line: Inhibition of rabbit skeletal muscle microsomes SERCA1a by malachite green based colorimetric method.
For experiment [23] the target is unchanged. Put plainly: Inhibition of rabbit skeletal muscle microsomes SERCA1a preincubated for 10 mins followed by addition of ATP and measured after 30 mins.
Experiment [24] can be described thus: Inhibition of porcine cerebellar microsomes SERCA2b incubated for 10 mins by enzyme-coupled method. The arrangement: species or system Sus scrofa domesticus, Cerebellum.
Experiment [25] deals with T1, Sarcoplasmic/endoplasmic reticulum calcium ATPase 1. Put plainly: Inhibition of rabbit skeletal muscle microsomes SERCA1a incubated for 10 mins by enzyme-coupled method.
The nature of experiment [26]: Inhibition of SERCA in chicken cerebellar microsomes. The arrangement: species or system Gallus gallus, Cerebellum.
In experiment [27] the target is Sodium/potassium-transporting ATPase. The experiment in a line: Competitive inhibition of Sodium/potassium-transporting ATPase (unknown origin) by liquid scintillation counting method. In kind it is protein-complex assay, Homo sapiens.
Experiment [28] can be described thus: Competitive inhibition of SERCA (unknown origin) by liquid scintillation counting method. The arrangement: species or system Homo sapiens.
In experiment [29] the target is T1, Sarcoplasmic/endoplasmic reticulum calcium ATPase 1. Put plainly: Inhibition of rabbit SERCA1a preincubated for 10 mins followed by addition of ATP and measured after 10 mins by colorimetric method.
Experiment [30] in a line: Inhibition of Porcine cerebellar microsomes SERCA preincubated for 10 mins followed by addition of ATP and measured after 10 mins by colorimetric method. More on the design: species or system Sus scrofa domesticus, Cerebellum.
A short description of experiment [31]: Inhibition of Porcine cardiac microsomes SERCA preincubated for 10 mins followed by addition of ATP and measured after 10 mins by colorimetric method. The arrangement: species or system Sus scrofa domesticus, Heart.
For another experiment, the species on record is Sus scrofa domesticus. The experiment in a line: Inhibition of Porcine cerebellar microsomes SERCA at 200 uM preincubated for 10 mins followed by addition of ATP and measured after 10 mins by colorimetric method relative to control. As to conditions: Cerebellum.
Experiment [32] concerns the target Sarcoplasmic/endoplasmic reticulum calcium ATPase 1 (Homo sapiens, UniProt O14983). Put plainly: Inhibition of SERCA1a (unknown origin) incubated for 10 mins by enzyme-coupled method.
The nature of experiment [33]: Inhibition of rabbit skeletal muscle microsomes SERCA incubated for 3 mins by [gamma32P]ATP based radiometric assay. More on the design: species or system Oryctolagus cuniculus.
For experiment [34], the target named is Sarcoplasmic/endoplasmic reticulum calcium ATPase 1 (Mus musculus) (UniProt Q8R429). The experiment in a line: Inhibition of SERCA1 in C57BL/6 mouse primary neurons at 30 uM by UV-Vis spectrophotometric method relative to control.
The target of experiment [35] is Sarcoplasmic/endoplasmic reticulum calcium ATPase 2 (Mus musculus) (UniProt O55143). Put plainly: Inhibition of SERCA2 in C57BL/6 mouse primary neurons at 30 uM by UV-Vis spectrophotometric method relative to control.
For the next experiment, the system named is HeLa. Put plainly: Antiproliferative activity against human HeLa cells. The class given is functional, cell-based.
Experiment [36] has as its target T2, Sarcoplasmic/endoplasmic reticulum calcium ATPase 3 (Homo sapiens, UniProt Q93084). Put plainly: Inhibition of SERCA3 in human platelet microsomes by enzyme-coupled method.
Experiment [37] concerns the target T3, Sarcoplasmic/endoplasmic reticulum calcium ATPase 2 (Homo sapiens, UniProt P16615). Put plainly: Inhibition of human SERCA2b expressed in COS7 cells microsomal membranes preincubated for 10 mins followed by addition of ATP and measured after 40 mins by ELISA method. The class given is cell-based. (In general: An ELISA detects its analyte on a solid surface through an enzyme-linked reagent.)

The nature of experiment [38]: Inhibition of porcine cerebellar microsomes SERCA2b by enzyme-coupled method. More on the design: species or system Sus scrofa domesticus, Cerebellum.
Experiment [39] can be described thus: Inhibition of porcine cardiac microsomes SERCA2a by enzyme-coupled method. The arrangement: species or system Sus scrofa domesticus, Heart.
The target in experiment [40] is T2, Sarcoplasmic/endoplasmic reticulum calcium ATPase 3. The experiment in a line: Inhibition of human SERCA3a expressed in COS7 cells microsomal membranes preincubated for 10 mins followed by addition of ATP and measured after 40 mins by ELISA method. In kind it is cell-based.
Experiment [41] deals with T1, Sarcoplasmic/endoplasmic reticulum calcium ATPase 1. The experiment in a line: Inhibition of rabbit SERCA1b expressed in COS7 cells microsomal membranes preincubated for 10 mins followed by addition of ATP and measured after 40 mins by ELISA method. In kind it is cell-based.
Experiment [42] concerns the target T3, Sarcoplasmic/endoplasmic reticulum calcium ATPase 2. Put plainly: Inhibition of SERCA2b in human platelet microsomes by enzyme-coupled method.
Experiment [43] is described as follows: Inhibition of SERCA in human PC3 cell microsomes by enzyme-coupled method.
The species named for the next experiment is Homo sapiens. The experiment in a line: Inhibition of SERCA (unknown origin) at 150 uM relative ro control.

T1 sequence (P04191 whole entry): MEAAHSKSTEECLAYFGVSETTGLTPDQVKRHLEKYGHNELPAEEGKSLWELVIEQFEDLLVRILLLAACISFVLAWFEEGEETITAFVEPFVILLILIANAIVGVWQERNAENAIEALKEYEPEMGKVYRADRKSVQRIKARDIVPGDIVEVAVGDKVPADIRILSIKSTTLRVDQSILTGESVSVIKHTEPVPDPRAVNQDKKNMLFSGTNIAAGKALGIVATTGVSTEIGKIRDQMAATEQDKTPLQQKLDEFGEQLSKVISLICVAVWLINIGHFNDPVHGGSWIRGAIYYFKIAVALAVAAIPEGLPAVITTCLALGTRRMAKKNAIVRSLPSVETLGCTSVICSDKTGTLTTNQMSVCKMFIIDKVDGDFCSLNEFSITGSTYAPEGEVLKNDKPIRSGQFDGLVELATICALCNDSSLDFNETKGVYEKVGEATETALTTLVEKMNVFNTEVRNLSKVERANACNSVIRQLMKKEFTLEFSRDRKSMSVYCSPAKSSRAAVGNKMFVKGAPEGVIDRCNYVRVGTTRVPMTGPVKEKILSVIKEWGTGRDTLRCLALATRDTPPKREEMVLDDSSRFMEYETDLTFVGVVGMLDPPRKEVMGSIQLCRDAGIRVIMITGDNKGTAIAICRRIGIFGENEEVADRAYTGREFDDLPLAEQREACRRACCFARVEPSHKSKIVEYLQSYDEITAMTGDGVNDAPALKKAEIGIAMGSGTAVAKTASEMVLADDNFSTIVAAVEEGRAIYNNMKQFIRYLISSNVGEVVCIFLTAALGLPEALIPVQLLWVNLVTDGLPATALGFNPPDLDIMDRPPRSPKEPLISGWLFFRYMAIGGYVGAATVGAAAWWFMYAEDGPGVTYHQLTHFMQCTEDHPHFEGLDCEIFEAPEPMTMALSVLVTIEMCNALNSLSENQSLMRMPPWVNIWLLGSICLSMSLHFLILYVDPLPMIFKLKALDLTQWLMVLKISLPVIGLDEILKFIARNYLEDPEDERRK
T2 sequence (Q93084 whole entry): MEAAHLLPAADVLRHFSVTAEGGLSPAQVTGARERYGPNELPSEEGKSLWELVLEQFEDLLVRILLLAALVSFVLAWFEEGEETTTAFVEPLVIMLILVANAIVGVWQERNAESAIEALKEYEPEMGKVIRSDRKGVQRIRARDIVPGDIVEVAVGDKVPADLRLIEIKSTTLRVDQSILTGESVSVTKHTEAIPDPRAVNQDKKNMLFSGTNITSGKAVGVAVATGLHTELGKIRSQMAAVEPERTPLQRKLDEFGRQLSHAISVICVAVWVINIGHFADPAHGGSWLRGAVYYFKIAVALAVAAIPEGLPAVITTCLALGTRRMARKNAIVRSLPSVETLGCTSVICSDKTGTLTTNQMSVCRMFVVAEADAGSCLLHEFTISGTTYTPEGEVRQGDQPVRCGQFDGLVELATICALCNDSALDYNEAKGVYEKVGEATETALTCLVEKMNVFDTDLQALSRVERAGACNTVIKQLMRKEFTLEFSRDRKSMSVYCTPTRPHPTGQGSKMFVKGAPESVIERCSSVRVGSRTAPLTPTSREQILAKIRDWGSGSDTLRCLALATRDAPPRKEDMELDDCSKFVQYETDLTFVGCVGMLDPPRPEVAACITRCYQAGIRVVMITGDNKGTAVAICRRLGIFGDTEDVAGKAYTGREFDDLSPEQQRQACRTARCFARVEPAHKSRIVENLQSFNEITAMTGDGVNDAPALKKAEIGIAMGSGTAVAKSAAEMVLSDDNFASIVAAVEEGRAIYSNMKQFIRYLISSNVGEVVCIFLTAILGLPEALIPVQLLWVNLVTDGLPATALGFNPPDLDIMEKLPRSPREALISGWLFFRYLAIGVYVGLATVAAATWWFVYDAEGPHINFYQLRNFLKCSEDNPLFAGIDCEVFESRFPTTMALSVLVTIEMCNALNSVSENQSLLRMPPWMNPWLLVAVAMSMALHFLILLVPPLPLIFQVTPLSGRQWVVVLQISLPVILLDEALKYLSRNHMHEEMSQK
T3 sequence (P16615 whole entry): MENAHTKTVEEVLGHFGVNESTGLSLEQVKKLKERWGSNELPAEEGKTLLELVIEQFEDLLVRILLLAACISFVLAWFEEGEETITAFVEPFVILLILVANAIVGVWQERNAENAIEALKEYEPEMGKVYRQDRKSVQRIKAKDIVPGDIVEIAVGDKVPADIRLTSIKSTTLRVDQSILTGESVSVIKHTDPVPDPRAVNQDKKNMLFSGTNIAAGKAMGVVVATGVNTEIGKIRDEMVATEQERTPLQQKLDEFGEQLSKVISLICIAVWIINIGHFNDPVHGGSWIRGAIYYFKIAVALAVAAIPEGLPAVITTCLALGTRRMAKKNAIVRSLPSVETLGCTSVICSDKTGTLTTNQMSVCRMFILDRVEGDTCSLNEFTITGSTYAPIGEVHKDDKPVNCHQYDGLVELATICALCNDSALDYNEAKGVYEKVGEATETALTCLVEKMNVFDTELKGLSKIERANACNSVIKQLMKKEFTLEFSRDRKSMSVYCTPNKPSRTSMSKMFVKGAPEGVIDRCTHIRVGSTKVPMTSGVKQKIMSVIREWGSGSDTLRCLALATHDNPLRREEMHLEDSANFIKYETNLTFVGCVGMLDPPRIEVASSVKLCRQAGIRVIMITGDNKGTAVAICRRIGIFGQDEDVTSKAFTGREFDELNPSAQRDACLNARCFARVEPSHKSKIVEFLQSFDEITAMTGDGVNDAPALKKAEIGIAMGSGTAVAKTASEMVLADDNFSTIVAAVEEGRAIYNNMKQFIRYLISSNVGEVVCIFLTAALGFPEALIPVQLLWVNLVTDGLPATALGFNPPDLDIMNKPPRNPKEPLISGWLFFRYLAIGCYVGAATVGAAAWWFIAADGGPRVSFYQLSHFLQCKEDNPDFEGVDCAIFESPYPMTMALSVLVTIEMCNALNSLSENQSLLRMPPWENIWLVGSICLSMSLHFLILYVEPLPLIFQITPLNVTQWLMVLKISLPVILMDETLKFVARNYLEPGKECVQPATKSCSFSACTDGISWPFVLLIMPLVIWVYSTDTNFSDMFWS
Sarcoplasmic/endoplasmic reticulum calcium ATPase 1 (Mus musculus), sequence (Q8R429 whole entry): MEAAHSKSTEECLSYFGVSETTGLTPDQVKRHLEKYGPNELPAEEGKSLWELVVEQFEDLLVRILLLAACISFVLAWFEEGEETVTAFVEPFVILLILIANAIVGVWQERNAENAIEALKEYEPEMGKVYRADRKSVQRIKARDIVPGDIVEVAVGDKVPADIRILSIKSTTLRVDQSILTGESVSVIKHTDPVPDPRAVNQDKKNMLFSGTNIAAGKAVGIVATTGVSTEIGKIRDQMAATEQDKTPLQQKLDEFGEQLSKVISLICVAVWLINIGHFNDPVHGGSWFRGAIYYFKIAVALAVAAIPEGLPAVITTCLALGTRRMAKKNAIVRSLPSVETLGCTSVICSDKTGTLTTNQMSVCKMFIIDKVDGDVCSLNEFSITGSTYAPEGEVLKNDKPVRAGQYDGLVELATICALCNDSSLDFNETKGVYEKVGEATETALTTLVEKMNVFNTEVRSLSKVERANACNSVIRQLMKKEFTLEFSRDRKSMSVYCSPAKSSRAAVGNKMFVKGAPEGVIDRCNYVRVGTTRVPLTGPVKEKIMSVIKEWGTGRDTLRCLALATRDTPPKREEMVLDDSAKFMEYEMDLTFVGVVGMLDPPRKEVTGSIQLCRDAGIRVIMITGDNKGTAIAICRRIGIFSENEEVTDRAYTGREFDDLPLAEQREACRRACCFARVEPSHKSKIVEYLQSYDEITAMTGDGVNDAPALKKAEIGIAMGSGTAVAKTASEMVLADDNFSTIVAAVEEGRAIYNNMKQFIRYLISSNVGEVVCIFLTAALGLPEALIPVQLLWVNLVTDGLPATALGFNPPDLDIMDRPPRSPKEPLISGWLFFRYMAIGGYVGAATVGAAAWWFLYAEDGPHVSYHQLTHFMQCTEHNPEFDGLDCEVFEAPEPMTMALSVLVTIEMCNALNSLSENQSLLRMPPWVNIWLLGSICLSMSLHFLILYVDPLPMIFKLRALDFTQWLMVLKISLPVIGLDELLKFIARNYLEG
Sarcoplasmic/endoplasmic reticulum calcium ATPase 2 (Rattus norvegicus, UniProt P11507), sequence (P11507 whole entry): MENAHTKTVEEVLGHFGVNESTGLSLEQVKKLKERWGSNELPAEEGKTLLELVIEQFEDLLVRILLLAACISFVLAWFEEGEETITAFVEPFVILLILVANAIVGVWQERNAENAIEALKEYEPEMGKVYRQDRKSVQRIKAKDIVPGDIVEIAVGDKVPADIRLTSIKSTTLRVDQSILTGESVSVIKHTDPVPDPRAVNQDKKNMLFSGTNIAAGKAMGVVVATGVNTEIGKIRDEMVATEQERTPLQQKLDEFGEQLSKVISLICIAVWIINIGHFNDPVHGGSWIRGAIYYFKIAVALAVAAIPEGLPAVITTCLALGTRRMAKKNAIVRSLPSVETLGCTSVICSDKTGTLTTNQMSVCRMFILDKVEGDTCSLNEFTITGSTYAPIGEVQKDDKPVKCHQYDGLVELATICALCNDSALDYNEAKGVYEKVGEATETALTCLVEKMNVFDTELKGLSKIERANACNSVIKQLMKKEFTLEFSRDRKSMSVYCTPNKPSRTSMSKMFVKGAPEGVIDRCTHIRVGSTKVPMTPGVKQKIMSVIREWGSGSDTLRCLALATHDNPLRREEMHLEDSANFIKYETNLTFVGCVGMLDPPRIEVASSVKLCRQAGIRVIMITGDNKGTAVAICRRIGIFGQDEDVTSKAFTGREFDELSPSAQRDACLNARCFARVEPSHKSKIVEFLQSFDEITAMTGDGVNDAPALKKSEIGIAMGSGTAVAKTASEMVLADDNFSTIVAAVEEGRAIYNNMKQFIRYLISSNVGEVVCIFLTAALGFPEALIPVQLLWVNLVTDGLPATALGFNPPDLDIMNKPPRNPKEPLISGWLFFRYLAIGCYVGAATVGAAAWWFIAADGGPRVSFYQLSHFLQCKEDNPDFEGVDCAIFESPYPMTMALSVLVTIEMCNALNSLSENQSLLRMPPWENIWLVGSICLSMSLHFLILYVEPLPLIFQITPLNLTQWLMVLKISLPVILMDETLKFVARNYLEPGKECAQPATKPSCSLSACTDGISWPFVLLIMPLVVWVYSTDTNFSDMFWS

With `CC1=CCC[C@@H]2[C@@](C)(CC/C(C)=C/Cn3c[n+](C)c4ncnc(N)c43)[C@H](C)CC[C@@]12C`, the IC50 was 11 to 29 µM in experiment [1]; 5.58 µM in experiment [2]; 11 to 29 µM in experiment [3]; 11 to 29 µM in [4]; 11 to 29 µM in experiment [5].

In turn, `Clc1ccccc1C(c1ccccc1)(c1ccccc1)n1ccnc1` [CLOTRIMAZOLE] registered a concentration for half-maximal inhibition (IC50) in experiment [6] of 5.2 µM. For the same compound, the K0.5 in the experiment listed under Oryctolagus cuniculus [7] and in the experiment filed under Oryctolagus cuniculus [8] was 24 to 30 µM in each case.

As for `C/C=C(\C)C(=O)O[C@@H]1C[C@H]2C(=C1C)[C@@H]1OC(=O)[C@@](C)(O)[C@@]1(O)[C@@H](OC(=O)[C@H](C)CC)C[C@@]2(C)OC(C)=O`, the IC50 in [9] worked out at 20 µM.

As for `CCCCCCCCCc1ccc(O)cc1` [4-NONYLPHENOL], the IC50 in [10] is 0.35 to 6 µM; in experiment [11], 0.35 to 6 µM; in experiment [12], 0.35 to 6 µM; in [13], 4 µM; in [14] it was 0.35 to 6 µM.

In the case of `NCCOB(c1ccccc1)c1ccccc1`, the concentration for half-maximal inhibition (IC50) in experiment [15] and in [16] was 70 to 700 µM each time.

On to `O=C1CSC(c2ccccc2Cl)c2cc(Cl)ccc2N1` (centres undefined), for which the IC50 is 9.9 µM in experiment [17] and 6.6 µM in [18].

As for `CC(C)(c1ccc(O)cc1)c1ccc(O)cc1` [BISPHENOL A], the IC50 was determined as 233 µM in [13], 233 µM in experiment [19], 2 µM in experiment [20] and 2 µM in experiment [21].

Turning to `Clc1cccc(C(Nc2ccnc3cc(Cl)ccc23)c2ccc(CN3CCCC3)cc2)c1` (centres undefined), in experiment [22], the IC50 worked out at 8 µM.

In the case of `Cc1cc(O)ccc1Cl` [CHLOROCRESOL], in experiment [23], the IC50 came to 2800 µM.

With `Clc1ccc(C(c2ccc(Cl)cc2)[n+]2ccn(CC(OCc3ccc(Cl)cc3Cl)c3ccc(Cl)cc3Cl)c2)cc1` (centres undefined) [CALMIDAZOLIUM CHLORIDE], the IC50 in experiment [24] and in experiment [25] was 0.5 µM each time.

SODIUM ORTHOVANAD: the half-maximal inhibitory concentration (IC50) in experiment [26] was 10 to 100 µM.

Turning to `N=C(N)SCc1cc(CSC(=N)N)c(Br)c(CSC(=N)N)c1Br`, the IC50 in experiment [18] is 29 µM. Further, the Ki in experiment [27] was found to be 0.32 µM; in [28], 20 µM.

In the case of `Clc1cccc(C(Nc2ccnc3cc(Cl)ccc23)c2ccc(CN3CCN(c4ccnc5cc(Cl)ccc45)CC3)cc2)c1` (centres undefined), the IC50 in [22] was determined as 1.3 µM.

For the compound `CO[C@H]1C[C@@H]2CC[C@@H](C)[C@@](O)(O2)C(=O)C(=O)N2CCCC[C@H]2C(=O)O[C@H]([C@H](C)C[C@@H]2CC[C@@H](O)[C@H](OC)C2)CC(=O)[C@H](C)/C=C(\C)[C@@H](O)[C@@H](OC)C(=O)[C@H](C)C[C@H](C)/C=C/C=C/C=C/1C` [SIROLIMUS], the IC50 in [29], in experiment [30] and in experiment [31] was 77 µM throughout. This compound also showed an inhibition in the experiment listed under Sus scrofa domesticus of 80%.

As to `COc1ccc2c(c[n+](C)c3c4cc5c(cc4ccc23)OCO5)c1OC` [CHELERYTHRINE], the IC50 in experiment [32] amounted to 27 µM; in [33] it was 1.5 µM; in [25], 1.2 µM.

Take `C[C@H]1O[C@@H](O[C@H]2CC[C@@]3(C)[C@@H](CC[C@]4(C)[C@@H]3C=C[C@]35OC[C@@]6(CCC(C)(C)C[C@H]63)[C@H](O)C[C@]54C)[C@]2(C)CO)[C@H](O)[C@@H](O[C@@H]2O[C@H](CO)[C@@H](O)[C@H](O)[C@H]2O)[C@H]1O`: the figures for the IC50 (in experiment [2]; with HeLa) were 50 µM and 10 µM, respectively. Moreover, the inhibition in experiment [34] was 10%; in experiment [35], 18%.

`COc1cc(/C=C/C(=O)CC(=O)/C=C/c2ccc(O)c(OC)c2)ccc1O` [CURCUMIN]: the IC50 in [36] was in the range of 7 to 15 µM; in experiment [38], 7 to 15 µM; in experiment [20], 3 to 15 µM; in [39], 7 to 15 µM; in experiment [42] it was 7 to 15 µM. The Ki came to 53 µM in experiment [37], 8.6 µM in experiment [40] and 5.8 µM in [41].

Compound `Cc1ccc(-c2cc(C(F)(F)F)nn2-c2ccc(S(N)(=O)=O)cc2)cc1` [CELECOXIB] had an IC50 in experiment [43] of 32 µM.

For `O=C1c2c(O)cc(O)cc2OC2(c3ccc(O)c(O)c3)Oc3cc(-c4oc5cc(O)cc(O)c5c(=O)c4O)ccc3OC12O` (centres undefined), the inhibition in the experiment filed under Homo sapiens turned out to be 100%.

Regarding IVERMECTIN, the IC50 in [30] and in experiment [31] was 15 µM throughout.

In general, IC50 refers to the concentration needed to halve the response being measured. The term Ki denotes the equilibrium dissociation constant of an inhibitor or competing ligand from its target. One may read the inhibition as the share of the control response that was lost under treatment.

(Values after ChEMBL document CHEMBL4402560, “Sarco/Endoplasmic Reticulum Calcium ATPase Inhibitors: Beyond Anticancer Perspective” (J Med Chem, 2020).)
